Test results reported in patent publication US12522594B2, “2-heteroaryl-3-oxo-2,3-dihydropyridazine-4-carboxamides for the treatment of cancer” (Deutsches Krebsforschungszentrum, priority 2017, dated 2026).

How the values were obtained:
AHR [1] = molecular target: T1, AHR (Homo sapiens, UniProt P35869); assay: In vitro assay 2: agonism in human cell line (transactivation assay, U87 cells, DRE firefly luciferase reporter); format: cell-based; set-up: host or cells: U87 glioblastoma cells, stably transfected with DRE firefly luciferase and renilla reporter constructs; details: no kynurenic acid, 20 hours, read-out: Assay 2: AHR-luc Hum Agonism IC50
T1 sequence (P35869 11-848): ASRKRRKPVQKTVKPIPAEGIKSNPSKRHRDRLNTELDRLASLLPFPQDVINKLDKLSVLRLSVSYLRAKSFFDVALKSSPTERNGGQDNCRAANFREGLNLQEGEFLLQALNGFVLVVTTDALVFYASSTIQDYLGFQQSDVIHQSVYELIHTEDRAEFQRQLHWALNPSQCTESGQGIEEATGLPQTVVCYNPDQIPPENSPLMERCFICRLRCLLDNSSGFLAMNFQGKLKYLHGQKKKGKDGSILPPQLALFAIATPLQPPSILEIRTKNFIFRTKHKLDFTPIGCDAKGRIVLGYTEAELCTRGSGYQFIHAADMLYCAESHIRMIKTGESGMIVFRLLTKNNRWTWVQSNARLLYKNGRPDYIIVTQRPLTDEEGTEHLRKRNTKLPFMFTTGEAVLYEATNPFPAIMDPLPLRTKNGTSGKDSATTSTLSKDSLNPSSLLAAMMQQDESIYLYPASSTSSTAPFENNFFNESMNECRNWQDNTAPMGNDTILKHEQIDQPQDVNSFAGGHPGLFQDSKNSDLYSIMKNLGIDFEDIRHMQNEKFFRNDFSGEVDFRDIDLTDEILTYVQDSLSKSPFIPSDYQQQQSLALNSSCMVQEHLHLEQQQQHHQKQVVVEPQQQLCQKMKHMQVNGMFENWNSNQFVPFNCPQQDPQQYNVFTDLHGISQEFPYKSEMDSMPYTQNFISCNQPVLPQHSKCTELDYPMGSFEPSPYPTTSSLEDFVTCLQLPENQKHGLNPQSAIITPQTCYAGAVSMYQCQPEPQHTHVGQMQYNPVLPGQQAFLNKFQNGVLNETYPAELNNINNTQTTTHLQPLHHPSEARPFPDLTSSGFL
Summary of the method: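 U87 glioblastoma cells with endogenous AHR, stably carrying DRE-driven firefly luciferase and constitutive renilla reporters. 300 uM kynurenic acid served as positive activation control; data normalized to positive and negative controls.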

AHR [2] = molecular target: T1, AHR; assay: In vitro assay 1: antagonism in human cell line (transactivation assay, U87 cells prestimulated with kynurenic acid, DRE firefly luciferase reporter); format: cell-based; set-up: host or cells: U87 glioblastoma cells, stably transfected with DRE firefly luciferase and renilla reporter constructs; details: 150 uM kynurenic acid, 20 hours, read-out: Assay 1: AHR-luc Hum Antagonism IC50
Summary of the method: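 U87 glioblastoma cells with endogenous AHR, stably carrying a DRE-driven firefly luciferase reporter and a constitutive renilla reporter. Cells prestimulated with the AHR agonist kynurenic acid before compound addition; data normalized to positive and negative controls.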

Row | Compound | IC50 (AHR [1]) | IC50 (AHR [2])
1 | CC(C)(O)C(NC(=O)c1cc(-c2ccc(Cl)cc2)nn(-c2cncnc2)c1=O)C(F)(F)F (single isomer, unassigned) [Example 187, 6-(4-Chlorophenyl)-3-oxo-2-(pyrimidin-5-yl)-N-(1,1,1-trifluoro-3-hydroxy-3-methylbutan-2-yl)-2,3-dihydropyridazine-4-carboxamide] | > 20000 nM | 33.5 nM
2 | O=C(N[C@H](CO)CF)c1cc(-c2ccc(C(F)(F)F)cc2)nn(-c2cnsc2)c1=O [Example 203, N-[(2R)-1-Fluoro-3-hydroxypropan-2-yl]-3-oxo-2-(1,2-thiazol-4-yl)-6-[4-(trifluoromethyl)phenyl]-2,3-dihydropyridazine-4-carboxamide] | > 20000 nM | 0.852 nM
3 | C[C@@H](NC(=O)c1cc(-c2ccc(OC(F)(F)F)cc2)nn(-c2cnsc2)c1=O)C(C)(C)O [Example 327, N-[(2R)-3-Hydroxy-3-methylbutan-2-yl]-3-oxo-2-(1,2-thiazol-4-yl)-6-[4-(trifluoromethoxy)phenyl]-2,3-dihydropyridazine-4-carboxamide] | > 20000 nM | 2.58 nM
4 | O=C(N[C@H](CO)C(F)(F)F)c1cc(-c2ccc(C(F)(F)F)cc2)nn(-c2cn[nH]c2)c1=O [Example 212, 3-Oxo-2-(1H-pyrazol-4-yl)-N-[(2R)-1,1,1-trifluoro-3-hydroxypropan-2-yl]-6-[4-(trifluoromethyl)phenyl]-2,3-dihydropyridazine-4-carboxamide] | > 20000 nM | 1.69 nM
5 | C[C@H](NC(=O)c1cc(-c2ccc(C(F)(F)F)cc2)nn(-c2cccnc2)c1=O)C(C)(C)O [Example 226, N-[(2S)-3-Hydroxy-3-methylbutan-2-yl]-3-oxo-2-(pyridin-3-yl)-6-[4-(trifluoromethyl)phenyl]-2,3-dihydropyridazine-4-carboxamide] | > 20000 nM | 5.91 nM
6 | C[C@@H](CO)NC(=O)c1cc(-c2ccc(C(F)(F)F)cc2)nn(-c2cnsc2)c1=O [Example 205, N-[(2S)-1-Hydroxypropan-2-yl]-3-oxo-2-(1,2-thiazol-4-yl)-6-[4-(trifluoromethyl)phenyl]-2,3-dihydropyridazine-4-carboxamide] | > 20000 nM | 1.06 nM
7 | C[C@@H](NC(=O)c1cc(-c2ccc(C(F)(F)F)nc2)nn(-c2cncc(F)c2)c1=O)C(C)(C)O [Example 342, 2-(5-Fluoropyridin-3-yl)-N-[(2R)-3-hydroxy-3-methylbutan-2-yl]-3-oxo-6-[6-(trifluoromethyl)pyridin-3-yl]-2,3-dihydropyridazine-4-carboxamide] | > 20000 nM | 132 nM
8 | C[C@@H](CO)NC(=O)c1cc(-c2ccc(C(F)(F)F)cc2)nn(-c2cn[nH]c2)c1=O [Example 244, N-[(2S)-1-Hydroxypropan-2-yl]-3-oxo-2-(1H-pyrazol-4-yl)-6-[4-(trifluoromethyl)phenyl]-2,3-dihydropyridazine-4-carboxamide] | > 20000 nM | 11.9 nM
9 | CC(C)(O)C(NC(=O)c1cc(-c2ccc(C(F)(F)F)cc2)nn(-c2cccnc2)c1=O)C(F)(F)F (single isomer, unassigned; (+)) [Example 197, (+)-3-Oxo-2-(pyridin-3-yl)-N-(1,1,1-trifluoro-3-hydroxy-3-methylbutan-2-yl)-6-[4-(trifluoromethyl)phenyl]-2,3-dihydropyridazine-4-carboxamide] | > 20000 nM | 0.502 nM
10 | C[C@@H](NC(=O)c1cc(-c2ccc(C(F)(F)F)cc2)nn(-c2cnn(C)c2)c1=O)C(C)(C)O [Example 202, N-[(2R)-3-Hydroxy-3-methylbutan-2-yl]-2-(1-methyl-1H-pyrazol-4-yl)-3-oxo-6-[4-(trifluoromethyl)phenyl]-2,3-dihydropyridazine-4-carboxamide] | > 20000 nM | 0.825 nM
11 | Cn1cc(-n2nc(-c3ccc(C(F)F)nc3)cc(C(=O)N[C@H]3CCCC[C@H]3O)c2=O)cn1 [Example 54, 6-[6-(Difluoromethyl)pyridin-3-yl]-N-[(1S,2R)-2-hydroxycyclohexyl]-2-(1-methyl-1H-pyrazol-4-yl)-3-oxo-2,3-dihydropyridazine-4-carboxamide] | > 20000 nM | 14.3 nM
12 | C[C@@H](CO)NC(=O)c1cc(-c2ccc(C(F)(F)F)cc2)nn(-c2cnn(C(F)F)c2)c1=O [Example 261, 2-[1-(Difluoromethyl)-1H-pyrazol-4-yl]-N-[(2S)-1-hydroxypropan-2-yl]-3-oxo-6-[4-(trifluoromethyl)phenyl]-2,3-dihydropyridazine-4-carboxamide] | > 20000 nM | 33 nM
13 | C[C@@H](CO)NC(=O)c1cc(-c2ccc(C(F)(F)F)nc2)nn(-c2cnsc2)c1=O [Example 251, N-[(2S)-1-Hydroxypropan-2-yl]-3-oxo-2-(1,2-thiazol-4-yl)-6-[6-(trifluoromethyl)pyridin-3-yl]-2,3-dihydropyridazine-4-carboxamide] | > 20000 nM | 17.9 nM
14 | Cn1cc(-n2nc(-c3ccc(Cl)cc3)cc(C(=O)N[C@@H]3CCC[C@]3(C)O)c2=O)cn1 (single isomer, unassigned) [Example 336, 6-(4-Chlorophenyl)-N-[(cis)-2-hydroxy-2-methylcyclopentyl]-2-(1-methyl-1H-pyrazol-4-yl)-3-oxo-2,3-dihydropyridazine-4-carboxamide] | > 20000 nM | 42.9 nM

Next, values leading:

Row | IC50 (AHR [1]) | IC50 (AHR [2]) | Compound
15 | > 20000 nM | 103 nM | O=C(N[C@H]1COC[C@@H]1O)c1cc(-c2ccc(OC(F)(F)F)cc2)nn(-c2cccnc2)c1=O (single isomer, unassigned; enantiomer 1) [Example 161, N-[(trans)-4-Hydroxytetrahydrofuran-3-yl]-3-oxo-2-(pyridin-3-yl)-6-[4-(trifluoromethoxy)phenyl]-2,3-dihydropyridazine-4-carboxamide, Enantiomer 1]
16 | > 20000 nM | 12.5 nM | O=C(NCC1(O)CC1)c1cc(-c2ccc(C(F)(F)F)cc2)nn(-c2cccnc2)c1=O [Example 188, N-[(1-Hydroxycyclopropyl)methyl]-3-oxo-2-(pyridin-3-yl)-6-[4-(trifluoromethyl)phenyl]-2,3-dihydropyridazine-4-carboxamide]
17 | > 20000 nM | 58.4 nM | O=C(N[C@H]1COC[C@H]1O)c1cc(-c2ccc(Cl)cc2)nn(-c2cccnc2)c1=O (racemic) [Example 171, rac-6-(4-chlorophenyl)-N-[(cis)-4-hydroxytetrahydrofuran-3-yl]-3-oxo-2-(pyridin-3-yl)-2,3-dihydropyridazine-4-carboxamide]
18 | > 20000 nM | 26.5 nM | CC(C)(O)C(NC(=O)c1cc(-c2ccc(Cl)cc2)nn(-c2cccnc2)c1=O)C(F)(F)F (single isomer, unassigned; enantiomer 1) [Example 122, 6-(4-Chlorophenyl)-3-oxo-2-(pyridin-3-yl)-N-(1,1,1-trifluoro-3-hydroxy-3-methylbutan-2-yl)-2,3-dihydropyridazine-4-carboxamide, Enantiomer 1]
19 | > 20000 nM | 101 nM | O=C(N[C@H](CO)C1CC1)c1cc(-c2ccc(Cl)cc2)nn(-c2cncnc2)c1=O [Example 273, 6-(4-Chlorophenyl)-N-[(1S)-1-cyclopropyl-2-hydroxyethyl]-3-oxo-2-(pyrimidin-5-yl)-2,3-dihydropyridazine-4-carboxamide]
20 | > 20000 nM | 3.63 nM | O=C(N[C@H](CO)CF)c1cc(-c2ccc(C(F)(F)F)cc2)nn(-c2cccnc2)c1=O [Example 221, N-[(2R)-1-Fluoro-3-hydroxypropan-2-yl]-3-oxo-2-(pyridin-3-yl)-6-[4-(trifluoromethyl)phenyl]-2,3-dihydropyridazine-4-carboxamide]
21 | > 20000 nM | 465 nM | C[C@@H](CO)NC(=O)c1cc(-c2ccc(Cl)cc2)nn(-c2ccnnc2)c1=O [Example 177, 3-(4-Chlorophenyl)-N-[(2S)-1-hydroxypropan-2-yl]-6-oxo-6H-1,4′-bipyridazine-5-carboxamide]
22 | > 20000 nM | 28.1 nM | O=C(N[C@H](CO)C1CC1)c1cc(-c2ccc(Cl)cc2)nn(-c2cncc(F)c2)c1=O [Example 259, 6-(4-Chlorophenyl)-N-[(1S)-1-cyclopropyl-2-hydroxyethyl]-2-(5-fluoropyridin-3-yl)-3-oxo-2,3-dihydropyridazine-4-carboxamide]
